Reference: patent publication US6737383B1, “Herbicidal oxadiazolidines” (priority 1999, dated 2004)

Experiments:
[1] = test system: bedstraw; test: Test B pre/postemergence bedstraw; assay type: in vivo, Galium aparine; conditions: Postemergence, Rate 250 g/ha; scale of 0 to 10, 0 is no effect, 10 is complete control
In short: (§1)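 Response is a visual 0-to-10 score relative to untreated plants, where 0 means no effect and 10 means complete control, taken twelve to sixteen days after application. Treatments went onto soil at planting and onto foliage of 1- to 4-leaf plants, using a surfactant-containing non-phytotoxic solvent.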

[2] = test system: blackgrass; test: Test B pre/postemergence blackgrass; assay type: in vivo, Alopecurus myosuroides
In short: as §1

[3] = test system: surinam grass; test: Test B pre/postemergence surinam grass; assay type: in vivo, Brachiaria decumbens
In short: as §1

[4] = test system: cocklebur; test: Test B pre/postemergence cocklebur; assay type: in vivo, Xanthium strumarium
In short: as §1

[5] = test system: corn; test: Test B pre/postemergence corn; assay type: in vivo, Zea mays
In short: as §1

[6] = test system: crabgrass; test: Test B pre/postemergence crabgrass; assay type: in vivo, Digitaria sanguinalis
In short: as §1

[7] = test system: giant foxtail; test: Test B pre/postemergence giant foxtail; assay type: in vivo, Setaria faberii
In short: as §1

[8] = test system: morningglory; test: Test B pre/postemergence morningglory; assay type: in vivo, Ipomoea hederacea
In short: as §1

[9] = test system: pigweed; test: Test B pre/postemergence pigweed; assay type: in vivo, Amaranthus retroflexus
In short: as §1

[10] = test system: soybean; test: Test B pre/postemergence soybean; assay type: in vivo, Glycine max
In short: as §1

[11] = test system: velvetleaf; test: Test B pre/postemergence velvetleaf; assay type: in vivo, Abutilon theophrasti
In short: as §1

[12] = test system: wheat; test: Test B pre/postemergence wheat; assay type: in vivo, Triticum aestivum
In short: as §1

[13] = test system: wild oat; test: Test B pre/postemergence wild oat; assay type: in vivo, Avena fatua
In short: as §1

[14] = test system: rice; test: Test B flood test rice; assay type: in vivo, Oryza sativa
In short: (§2)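 Each value is a visual injury score relative to controls, with 10 meaning complete control and 0 no effect. Evaluation took place twelve to sixteen days after the 2-leaf-stage plants were treated and kept in the greenhouse.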

[15] = test system: smallflower flatsedge; test: Test B flood test smallflower flatsedge; assay type: in vivo, Cyperus difformis
In short: as §2

[16] = test system: bamyardgrass; test: Test B flood test barnyardgrass; assay type: in vivo, Echinochloa crus-galli
In short: as §2

[17] = Postemergence, Rate 62 g/ha, scale 0 to 10, 0 is no effect, 10 is complete control
[18] = Postemergence, Rate 125 g/ha, scale of 0 to 10 where 0 is no effect and 10 is complete control
[19] = Postemergence, Rate 250 g/ha, scale of 0 to 10, 0 is no effect, 10 is complete control
[20] = Preemergence, Rate 62 g/ha, scale of 0 to 10 where 0 is no effect and 10 is complete control
[21] = Preemergence, Rate 125 g/ha, scale of 0 to 10 where 0 is no effect and 10 is complete control
[22] = Preemergence, Rate 250 g/ha, scale 0 to 10 (0 no effect, 10 complete control)
[23] = Preemergence, Rate 500 g/ha, scale of 0 to 10 where 0 is no effect and 10 is complete control
[24] = Rate 500 g/ha, Postemergence, scale 0 to 10, 0 is no effect, 10 is complete control
[25] = Rate 62 g/ha, flood test species, Pre-emergence, visual evaluation after twelve to sixteen days
[26] = Rate 125 g/ha, under heading Pre-emergence, flood test species, visual evaluation after twelve to sixteen days
[27] = Rate 250 g/ha, Pre-emergence (flood test species), scale 0 to 10, 0 is no effect, 10 is complete control
[28] = Rate 500 g/ha, Pre-emergence section of Table B, 0 to 10 scale (0 no effect, 10 complete control)

Structure (SMILES): C#CC(C)n1c(=O)on(C(=O)N(c2ccc(Cl)cc2)C(C)C)c1=O (racemic) [Compound 658]
- Bedstraw plant response rating [1]: 0
- Plant response rating, Blackgrass [2, 17]: 0
- Blackgrass plant response rating [2, 18]: 3
- Blackgrass plant response rating [2, 19]: 6
- Blackgrass plant response rating [2, 20]: 3
- Blackgrass plant response rating [2, 21]: 7
- Plant response rating, Blackgrass [2, 22]: 7
- Plant response rating, Blackgrass [2, 23]: 7
- Blackgrass plant response rating [2, 24]: 7
- Plant response rating, B. signalgrass [3, 17]: 0
- Plant response rating, B. signalgrass [3, 18]: 0
- B. signalgrass plant response rating [3, 19]: 0
- B. signalgrass plant response rating [3, 20]: 0
- B. signalgrass plant response rating [3, 21]: 0
- Plant response rating, B. signalgrass [3, 22]: 8
- Plant response rating, B. signalgrass [3, 23]: 8
- B. signalgrass plant response rating [3, 24]: 0
- Plant response rating, Cocklebur [4, 17]: 0
- Cocklebur plant response rating [4, 18]: 0
- Cocklebur plant response rating [4, 19]: 2
- Cocklebur plant response rating [4, 20]: 0
- Cocklebur plant response rating [4, 21]: 0
- Plant response rating, Cocklebur [4, 22]: 0
- Plant response rating, Cocklebur [4, 23]: 0
- Cocklebur plant response rating [4, 24]: 5
- Plant response rating, Corn [5, 17]: 0
- Corn plant response rating [5, 18]: 0
- Corn plant response rating [5, 19]: 0
- Corn plant response rating [5, 20]: 0
- Corn plant response rating [5, 21]: 0
- Plant response rating, Corn [5, 22]: 2
- Plant response rating, Corn [5, 23]: 2
- Corn plant response rating [5, 24]: 0
- Plant response rating, Crabgrass [6, 17]: 0
- Crabgrass plant response rating [6, 18]: 2
- Crabgrass plant response rating [6, 19]: 2
- Crabgrass plant response rating [6, 20]: 3
- Crabgrass plant response rating [6, 21]: 7
- Plant response rating, Crabgrass [6, 22]: 8
- Plant response rating, Crabgrass [6, 23]: 9
- Plant response rating, Giant foxtail [7, 17]: 0
- Giant foxtail plant response rating [7, 18]: 3
- Giant foxtail plant response rating [7, 19]: 7
- Giant foxtail plant response rating [7, 20]: 9
- Giant foxtail plant response rating [7, 21]: 9
- Plant response rating, Giant foxtail [7, 22]: 9
- Plant response rating, Giant foxtail [7, 23]: 10
- Giant foxtail plant response rating [7, 24]: 6
- Plant response rating, Morningglory [8, 17]: 7
- Morningglory plant response rating [8, 18]: 7
- Morningglory plant response rating [8, 19]: 7
- Morningglory plant response rating [8, 20]: 0
- Morningglory plant response rating [8, 21]: 0
- Plant response rating, Morningglory [8, 22]: 0
- Plant response rating, Morningglory [8, 23]: 0
- Morningglory plant response rating [8, 24]: 10
- Plant response rating, Redroot pigweed [9, 17]: 6
- Redroot pigweed plant response rating [9, 18]: 6
- Redroot pigweed plant response rating [9, 20]: 2
- Redroot pigweed plant response rating [9, 21]: 9
- Plant response rating, Redroot pigweed [9, 22]: 9
- Plant response rating, Redroot pigweed [9, 23]: 10
- Redroot pigweed plant response rating [9, 24]: 7
- Plant response rating, Soybean [10, 17]: 2
- Soybean plant response rating [10, 18]: 4
- Soybean plant response rating [10, 20]: 0
- Soybean plant response rating [10, 21]: 0
- Plant response rating, Soybean [10, 22]: 0
- Plant response rating, Soybean [10, 23]: 3
- Soybean plant response rating [10, 24]: 4
- Plant response rating, Velvetleaf [11, 17]: 0
- Velvetleaf plant response rating [11, 18]: 0
- Velvetleaf plant response rating [11, 20]: 0
- Velvetleaf plant response rating [11, 21]: 0
- Plant response rating, Velvetleaf [11, 22]: 3
- Plant response rating, Velvetleaf [11, 23]: 5
- Velvetleaf plant response rating [11, 24]: 6
- Plant response rating, Wheat [12, 17]: 0
- Wheat plant response rating [12, 18]: 0
- Wheat plant response rating [12, 20]: 0
- Wheat plant response rating [12, 21]: 0
- Plant response rating, Wheat [12, 22]: 0
- Plant response rating, Wheat [12, 23]: 3
- Wheat plant response rating [12, 24]: 0
- Plant response rating, Wild oats [13, 17]: 1
- Wild oats plant response rating [13, 18]: 1
- Wild oats plant response rating [13, 20]: 0
- Wild oats plant response rating [13, 21]: 2
- Plant response rating, Wild oats [13, 22]: 3
- Plant response rating, Wild oats [13, 23]: 4
- Wild oats plant response rating [13, 24]: 2
- Plant response rating, Rice (0 to 10 scale, 0 is no effect, 10 is complete control) [14, 25]: 0
- Rice plant response rating (0 to 10 scale, 0 is no effect, 10 is complete control) [14, 26]: 0
- Rice plant response rating [14, 27]: 0
- Rice plant response rating [14, 28]: 0
- Plant response rating, S. Flatsedge (0 to 10 scale, 0 is no effect, 10 is complete control) [15, 25]: 0
- S. Flatsedge plant response rating (0 to 10 scale, 0 is no effect, 10 is complete control) [15, 26]: 0
- S. Flatsedge plant response rating [15, 27]: 0
- S. Flatsedge plant response rating [15, 28]: 0
- Plant response rating, Barnyardgrass (0 to 10 scale, 0 is no effect, 10 is complete control) [16, 25]: 0
- Barnyardgrass plant response rating (0 to 10 scale, 0 is no effect, 10 is complete control) [16, 26]: 0
- Barnyardgrass plant response rating [16, 27]: 0
- Barnyardgrass plant response rating [16, 28]: 0
